According to ChEMBL document CHEMBL4507285, “Data for DCP probe MRL-SYKi” (2021):

How the values were obtained:
[1] = test system: Tyrosine-protein kinase ABL1 (Homo sapiens), P00519 [Q252H]; settings: Compound concentration 100.0 nM
[2] = biological target: SRSF protein kinase 3 (Homo sapiens) (UniProt Q9UPE1); settings: Compound concentration 100.0 nM
[3] = biological target: Receptor-interacting serine/threonine-protein kinase 2 (Homo sapiens) (UniProt O43353); settings: Compound concentration 100.0 nM
[4] = biological target: Citron Rho-interacting kinase (Homo sapiens) (UniProt O14578); settings: Compound concentration 100.0 nM
[5] = biological target: Mitogen-activated protein kinase kinase kinase 14 (Homo sapiens) (UniProt Q99558); settings: Compound concentration 100.0 nM
[6] = biological target: Receptor-type tyrosine-protein kinase FLT3 (Homo sapiens) (UniProt P36888); settings: Compound concentration 100.0 nM
[7] = test system: Epidermal growth factor receptor (Homo sapiens), P00533 [UNDEFINED MUTATION]; settings: Compound concentration 100.0 nM
Chain of Epidermal growth factor receptor (Homo sapiens), P00533 [UNDEFINED MUTATION] (P00533 whole entry, looked up, stated change not applied, canonical isoform): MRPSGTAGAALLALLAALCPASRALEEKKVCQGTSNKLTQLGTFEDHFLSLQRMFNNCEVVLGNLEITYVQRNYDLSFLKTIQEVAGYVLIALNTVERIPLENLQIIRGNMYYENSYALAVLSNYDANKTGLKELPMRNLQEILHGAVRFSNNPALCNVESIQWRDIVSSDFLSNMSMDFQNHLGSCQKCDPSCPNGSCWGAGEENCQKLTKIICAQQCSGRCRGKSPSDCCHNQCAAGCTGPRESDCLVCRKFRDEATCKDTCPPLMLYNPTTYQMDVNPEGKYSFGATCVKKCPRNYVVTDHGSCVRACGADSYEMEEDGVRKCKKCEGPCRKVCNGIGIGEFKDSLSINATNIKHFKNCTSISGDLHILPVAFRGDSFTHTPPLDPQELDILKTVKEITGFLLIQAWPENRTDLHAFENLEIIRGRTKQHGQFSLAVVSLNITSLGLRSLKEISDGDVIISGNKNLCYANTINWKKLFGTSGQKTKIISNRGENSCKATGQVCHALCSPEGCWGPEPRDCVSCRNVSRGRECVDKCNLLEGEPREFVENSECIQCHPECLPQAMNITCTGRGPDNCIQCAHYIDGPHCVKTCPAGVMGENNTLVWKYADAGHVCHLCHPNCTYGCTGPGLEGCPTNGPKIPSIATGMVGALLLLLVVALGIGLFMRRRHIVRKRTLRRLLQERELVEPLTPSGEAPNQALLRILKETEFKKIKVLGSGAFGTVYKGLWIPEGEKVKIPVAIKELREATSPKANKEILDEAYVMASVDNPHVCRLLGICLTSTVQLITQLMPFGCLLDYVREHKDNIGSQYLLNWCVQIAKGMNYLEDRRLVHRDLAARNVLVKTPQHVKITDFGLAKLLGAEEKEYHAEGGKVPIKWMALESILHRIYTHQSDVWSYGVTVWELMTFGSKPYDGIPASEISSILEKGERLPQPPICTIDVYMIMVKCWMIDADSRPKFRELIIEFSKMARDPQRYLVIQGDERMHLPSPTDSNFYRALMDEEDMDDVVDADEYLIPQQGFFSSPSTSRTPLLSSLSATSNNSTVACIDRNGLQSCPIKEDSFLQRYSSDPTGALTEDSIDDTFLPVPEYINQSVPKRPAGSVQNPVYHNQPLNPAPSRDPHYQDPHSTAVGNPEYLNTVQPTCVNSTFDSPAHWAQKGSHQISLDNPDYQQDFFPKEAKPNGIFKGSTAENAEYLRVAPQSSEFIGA

[8] = test system: Phosphatidylinositol 4,5-bisphosphate 3-kinase catalytic subunit alpha isoform (Homo sapiens), P42336 [E545K]; settings: Compound concentration 100.0 nM
[9] = biological target: Wee1-like protein kinase (Homo sapiens) (UniProt P30291); settings: Compound concentration 100.0 nM
[10] = biological target: Dual specificity mitogen-activated protein kinase kinase 6 (Homo sapiens) (UniProt P52564); settings: Compound concentration 100.0 nM
[11] = biological target: Myosin light chain kinase, smooth muscle (Homo sapiens) (UniProt Q15746); settings: Compound concentration 100.0 nM
[12] = biological target: Mitogen-activated protein kinase kinase kinase kinase 4 (Homo sapiens) (UniProt O95819); settings: Compound concentration 100.0 nM
[13] = test system: Receptor-type tyrosine-protein kinase FLT3 (Homo sapiens), P36888 [D835V]; settings: Compound concentration 100.0 nM
[14] = biological target: Cyclin-dependent kinase 17 (Homo sapiens) (UniProt Q00537); settings: Compound concentration 100.0 nM
Chain of Cyclin-dependent kinase 17 (Homo sapiens) (Q00537 whole entry, looked up): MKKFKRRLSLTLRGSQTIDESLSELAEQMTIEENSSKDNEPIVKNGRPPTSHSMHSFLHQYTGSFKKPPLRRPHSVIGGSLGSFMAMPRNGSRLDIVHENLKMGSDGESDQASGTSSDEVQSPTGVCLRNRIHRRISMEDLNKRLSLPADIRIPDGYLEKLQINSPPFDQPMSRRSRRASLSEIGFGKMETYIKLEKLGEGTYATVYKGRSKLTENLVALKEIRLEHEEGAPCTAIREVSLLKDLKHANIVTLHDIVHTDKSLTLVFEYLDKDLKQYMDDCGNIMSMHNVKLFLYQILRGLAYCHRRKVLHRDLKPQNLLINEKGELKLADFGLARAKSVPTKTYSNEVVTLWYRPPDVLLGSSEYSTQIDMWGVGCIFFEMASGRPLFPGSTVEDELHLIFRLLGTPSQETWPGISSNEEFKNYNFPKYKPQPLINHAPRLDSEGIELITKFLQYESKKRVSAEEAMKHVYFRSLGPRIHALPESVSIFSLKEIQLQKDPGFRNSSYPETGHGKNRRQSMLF

[15] = biological target: Hepatocyte growth factor receptor (Homo sapiens) (UniProt P08581); settings: Compound concentration 100.0 nM
[16] = biological target: Mast/stem cell growth factor receptor Kit (Homo sapiens) (UniProt P10721); settings: Compound concentration 100.0 nM
[17] = biological target: Mitogen-activated protein kinase 8 (Homo sapiens) (UniProt P45983); settings: Compound concentration 100.0 nM
Chain of Mitogen-activated protein kinase 8 (Homo sapiens) (P45983 whole entry): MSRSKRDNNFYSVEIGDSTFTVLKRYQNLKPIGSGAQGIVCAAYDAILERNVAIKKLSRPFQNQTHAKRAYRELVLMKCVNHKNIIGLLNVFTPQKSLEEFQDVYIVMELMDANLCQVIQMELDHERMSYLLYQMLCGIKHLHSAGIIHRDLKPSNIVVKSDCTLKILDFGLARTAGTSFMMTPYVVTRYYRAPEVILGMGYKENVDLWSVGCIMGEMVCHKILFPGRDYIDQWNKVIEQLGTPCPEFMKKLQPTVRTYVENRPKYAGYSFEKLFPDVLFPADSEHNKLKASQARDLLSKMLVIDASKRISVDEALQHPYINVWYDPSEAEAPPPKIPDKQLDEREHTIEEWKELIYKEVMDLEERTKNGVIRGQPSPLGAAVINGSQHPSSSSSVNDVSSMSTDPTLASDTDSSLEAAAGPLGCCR

[18] = biological target: Serine/threonine-protein kinase Nek7 (Homo sapiens) (UniProt Q8TDX7); settings: Compound concentration 100.0 nM
[19] = biological target: Cyclin-dependent kinase 4 (Homo sapiens) (UniProt P11802); settings: Compound concentration 100.0 nM
[20] = test system: Epidermal growth factor receptor (Homo sapiens), P00533 [UNDEFINED MUTATION]; settings: Compound concentration 100.0 nM; remark: listed apart in the source
[21] = biological target: RAC-alpha serine/threonine-protein kinase (Homo sapiens) (UniProt P31749); settings: Compound concentration 100.0 nM
[22] = biological target: Maternal embryonic leucine zipper kinase (Homo sapiens) (UniProt Q14680); settings: Compound concentration 100.0 nM
[23] = biological target: Phosphatidylinositol 4,5-bisphosphate 3-kinase catalytic subunit gamma isoform (Homo sapiens) (UniProt P48736); settings: Compound concentration 100.0 nM
[24] = biological target: Atypical kinase COQ8B, mitochondrial (Homo sapiens) (UniProt Q96D53); settings: Compound concentration 100.0 nM
Chain of Atypical kinase COQ8B, mitochondrial (Homo sapiens) (Q96D53 whole entry): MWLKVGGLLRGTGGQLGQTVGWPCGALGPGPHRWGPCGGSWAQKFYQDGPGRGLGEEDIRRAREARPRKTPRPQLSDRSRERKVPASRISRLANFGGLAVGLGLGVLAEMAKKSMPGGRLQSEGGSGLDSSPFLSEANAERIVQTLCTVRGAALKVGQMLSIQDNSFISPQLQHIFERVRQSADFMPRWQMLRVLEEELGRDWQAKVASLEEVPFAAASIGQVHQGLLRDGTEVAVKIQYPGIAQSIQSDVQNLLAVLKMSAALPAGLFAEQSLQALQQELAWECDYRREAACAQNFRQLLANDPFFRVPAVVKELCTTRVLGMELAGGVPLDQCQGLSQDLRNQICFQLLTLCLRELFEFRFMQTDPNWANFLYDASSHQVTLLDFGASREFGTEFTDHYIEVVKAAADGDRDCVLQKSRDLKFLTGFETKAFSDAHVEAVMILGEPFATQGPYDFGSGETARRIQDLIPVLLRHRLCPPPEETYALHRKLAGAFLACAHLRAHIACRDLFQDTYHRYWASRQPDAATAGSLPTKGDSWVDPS

[25] = biological target: Serine/threonine-protein kinase SIK3 (Homo sapiens) (UniProt Q9Y2K2); settings: Compound concentration 100.0 nM
[26] = biological target: Homeodomain-interacting protein kinase 1 (Homo sapiens) (UniProt Q86Z02); settings: Compound concentration 100.0 nM
[27] = biological target: Mitogen-activated protein kinase kinase kinase 13 (Homo sapiens) (UniProt O43283); settings: Compound concentration 100.0 nM
[28] = biological target: Mitogen-activated protein kinase 10 (Homo sapiens) (UniProt P53779); settings: Compound concentration 100.0 nM
[29] = biological target: Mitogen-activated protein kinase 11 (Homo sapiens) (UniProt Q15759); settings: Compound concentration 100.0 nM
[30] = test system: Phosphatidylinositol 4,5-bisphosphate 3-kinase catalytic subunit alpha isoform (Homo sapiens), P42336 [H1047Y]; settings: Compound concentration 100.0 nM
Chain of Phosphatidylinositol 4,5-bisphosphate 3-kinase catalytic subunit alpha isoform (Homo sapiens), P42336 [H1047Y] (P42336 whole entry H1047Y, canonical isoform): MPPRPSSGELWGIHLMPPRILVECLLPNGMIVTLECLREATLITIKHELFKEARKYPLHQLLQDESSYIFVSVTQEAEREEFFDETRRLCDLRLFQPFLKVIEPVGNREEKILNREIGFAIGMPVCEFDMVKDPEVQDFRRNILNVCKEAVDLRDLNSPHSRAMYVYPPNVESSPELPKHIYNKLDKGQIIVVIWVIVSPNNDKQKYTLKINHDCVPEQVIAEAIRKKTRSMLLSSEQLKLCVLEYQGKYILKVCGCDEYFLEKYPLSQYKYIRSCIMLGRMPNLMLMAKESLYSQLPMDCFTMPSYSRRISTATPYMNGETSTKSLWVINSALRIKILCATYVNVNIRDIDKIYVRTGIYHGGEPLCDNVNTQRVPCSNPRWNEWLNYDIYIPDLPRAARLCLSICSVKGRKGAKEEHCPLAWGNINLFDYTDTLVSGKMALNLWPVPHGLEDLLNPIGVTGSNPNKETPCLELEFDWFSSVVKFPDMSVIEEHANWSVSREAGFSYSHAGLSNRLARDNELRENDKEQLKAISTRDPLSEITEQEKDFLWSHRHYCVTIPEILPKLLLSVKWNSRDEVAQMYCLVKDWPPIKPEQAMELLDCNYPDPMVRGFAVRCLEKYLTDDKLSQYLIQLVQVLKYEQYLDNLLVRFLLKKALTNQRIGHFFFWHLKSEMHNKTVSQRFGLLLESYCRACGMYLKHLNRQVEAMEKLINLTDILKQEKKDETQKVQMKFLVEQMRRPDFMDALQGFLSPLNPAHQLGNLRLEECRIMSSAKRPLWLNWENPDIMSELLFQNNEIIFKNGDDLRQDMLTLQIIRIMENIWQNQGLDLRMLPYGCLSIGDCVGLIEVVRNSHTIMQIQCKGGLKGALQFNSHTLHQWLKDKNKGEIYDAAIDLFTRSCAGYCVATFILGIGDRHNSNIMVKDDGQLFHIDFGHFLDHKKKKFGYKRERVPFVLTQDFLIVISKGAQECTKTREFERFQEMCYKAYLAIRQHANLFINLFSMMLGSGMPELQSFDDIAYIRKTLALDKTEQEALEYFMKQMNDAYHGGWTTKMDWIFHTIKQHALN

[31] = biological target: Tyrosine-protein kinase Fgr (Homo sapiens, UniProt P09769); settings: Compound concentration 100.0 nM
Chain of Tyrosine-protein kinase Fgr (P09769 2-529 limits assumed): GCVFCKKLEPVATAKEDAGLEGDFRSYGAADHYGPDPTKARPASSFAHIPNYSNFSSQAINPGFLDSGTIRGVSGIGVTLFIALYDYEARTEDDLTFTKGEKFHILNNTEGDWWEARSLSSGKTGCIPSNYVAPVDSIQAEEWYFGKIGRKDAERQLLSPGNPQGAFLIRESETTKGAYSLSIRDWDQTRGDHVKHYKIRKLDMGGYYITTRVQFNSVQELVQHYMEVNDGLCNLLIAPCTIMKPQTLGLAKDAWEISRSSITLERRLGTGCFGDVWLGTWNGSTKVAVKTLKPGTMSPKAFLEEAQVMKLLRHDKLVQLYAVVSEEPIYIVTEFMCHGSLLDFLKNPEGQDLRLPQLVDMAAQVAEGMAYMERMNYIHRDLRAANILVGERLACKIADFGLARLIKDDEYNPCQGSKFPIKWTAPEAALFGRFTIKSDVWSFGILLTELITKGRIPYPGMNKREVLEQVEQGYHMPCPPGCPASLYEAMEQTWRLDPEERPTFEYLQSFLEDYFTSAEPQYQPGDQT

[32] = biological target: 5'-AMP-activated protein kinase catalytic subunit alpha-1 (Homo sapiens) (UniProt Q13131); settings: Compound concentration 100.0 nM
[33] = biological target: Histamine H2 receptor (Homo sapiens) (UniProt P25021); settings: Compound concentration 10.0 uM
[34] = biological target: Serine/threonine-protein kinase Nek6 (Homo sapiens) (UniProt Q9HC98); settings: Compound concentration 100.0 nM
Chain of Serine/threonine-protein kinase Nek6 (Homo sapiens) (Q9HC98 whole entry): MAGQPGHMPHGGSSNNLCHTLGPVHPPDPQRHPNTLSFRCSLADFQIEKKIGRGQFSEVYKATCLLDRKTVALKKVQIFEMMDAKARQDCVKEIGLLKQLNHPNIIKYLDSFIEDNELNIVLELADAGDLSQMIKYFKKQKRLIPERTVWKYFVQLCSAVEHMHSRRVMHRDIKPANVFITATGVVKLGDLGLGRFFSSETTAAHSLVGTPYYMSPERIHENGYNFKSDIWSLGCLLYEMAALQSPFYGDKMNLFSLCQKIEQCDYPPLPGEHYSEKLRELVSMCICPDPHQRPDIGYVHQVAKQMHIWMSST

[35] = biological target: RAF proto-oncogene serine/threonine-protein kinase (Homo sapiens) (UniProt P04049); settings: Compound concentration 100.0 nM
[36] = biological target: LIM domain kinase 1 (Homo sapiens, UniProt P53667); settings: Compound concentration 100.0 nM
[37] = biological target: Tyrosine-protein kinase FRK (Homo sapiens) (UniProt P42685); settings: Compound concentration 100.0 nM
[38] = biological target: Serine/threonine-protein kinase PLK2 (Homo sapiens) (UniProt Q9NYY3); settings: Compound concentration 100.0 nM
[39] = biological target: Beta-2 adrenergic receptor (Homo sapiens) (UniProt P07550); settings: Compound concentration 10.0 uM
Chain of Beta-2 adrenergic receptor (Homo sapiens) (P07550 whole entry, looked up): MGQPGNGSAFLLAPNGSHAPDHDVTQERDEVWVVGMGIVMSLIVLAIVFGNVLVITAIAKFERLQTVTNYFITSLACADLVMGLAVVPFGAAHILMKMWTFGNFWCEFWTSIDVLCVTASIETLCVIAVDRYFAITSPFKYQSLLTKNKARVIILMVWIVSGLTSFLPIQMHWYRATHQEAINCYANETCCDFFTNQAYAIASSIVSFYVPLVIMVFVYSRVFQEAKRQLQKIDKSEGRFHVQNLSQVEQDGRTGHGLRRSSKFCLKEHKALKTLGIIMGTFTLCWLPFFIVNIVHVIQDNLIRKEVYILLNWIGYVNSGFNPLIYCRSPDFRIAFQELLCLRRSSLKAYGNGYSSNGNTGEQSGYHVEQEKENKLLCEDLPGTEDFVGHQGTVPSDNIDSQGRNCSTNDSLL

[40] = biological target: Serine/threonine-protein kinase BRSK1 (Homo sapiens) (UniProt Q8TDC3); settings: Compound concentration 100.0 nM
[41] = biological target: Cyclin-dependent kinase-like 1 (Homo sapiens) (UniProt Q00532); settings: Compound concentration 100.0 nM
[42] = biological target: Phosphatidylinositol 3-kinase C2 domain-containing subunit gamma (Homo sapiens) (UniProt O75747); settings: Compound concentration 100.0 nM
[43] = biological target: Ephrin type-A receptor 5 (Homo sapiens) (UniProt P54756); settings: Compound concentration 100.0 nM
[44] = biological target: Mitogen-activated protein kinase 15 (Homo sapiens) (UniProt Q8TD08); settings: Compound concentration 100.0 nM
[45] = biological target: Protein kinase C delta type (Homo sapiens) (UniProt Q05655); settings: Compound concentration 100.0 nM

Cc1ccc(-c2cnc([C@@]3(O)CC[C@H](C(=O)O)C(C)(C)C3)s2)cc1Nc1cccc(C(F)(F)F)n1 [MRL-SYKi-NC]
active: residual activity [28] 37.5%
inactive: residual activity [1] 75.4% | residual activity [2] 100% | residual activity [3] 96.8% | residual activity [4] 90.9% | residual activity [5] 100% | residual activity [6] 100% | residual activity [7] 100% | residual activity [8] 97.7% | residual activity [9] 81.4% | residual activity [10] 89.3% | residual activity [11] 86.6% | residual activity [12] 100% | residual activity [13] 100% | residual activity [14] 100% | residual activity [15] 100% | residual activity [16] 100% | residual activity [17] 63.7% | residual activity [18] 75.7% | residual activity [19] 100% | residual activity [20] 92.1% | residual activity [21] 92.3% | residual activity [22] 100% | residual activity [23] 85.4% | residual activity [24] 98.7% | residual activity [25] 100% | residual activity [26] 84.8% | residual activity [27] 100% | residual activity [29] 98.7% | residual activity [30] 81.3% | residual activity [31] 100% | residual activity [32] 77.6% | inhibition [33] 8.65% | residual activity [34] 89.7% | residual activity [35] 100% | residual activity [36] 100% | residual activity [37] 100% | residual activity [38] 100% | inhibition [39] 1.6% | residual activity [40] 100% | residual activity [41] 75.6% | residual activity [42] 59.6% | residual activity [43] 100% | residual activity [44] 80.3% | residual activity [45] 89%

Cc1cc(Nc2nccc(C)n2)cc(-c2cnc([C@@]3(O)CC[C@H](C(=O)O)C(C)(C)C3)s2)c1 [MRL-SYKi]
active: residual activity [17] 46.6% | residual activity [30] 14.7%
inactive: residual activity [1] 86.9% | residual activity [2] 100% | residual activity [3] 83.8% | residual activity [4] 100% | residual activity [5] 89% | residual activity [6] 100% | residual activity [7] 74% | residual activity [8] 68.3% | residual activity [9] 93.1% | residual activity [10] 100% | residual activity [11] 92.9% | residual activity [12] 100% | residual activity [13] 75.6% | residual activity [14] 73.2% | residual activity [15] 100% | residual activity [16] 93.2% | residual activity [18] 92.9% | residual activity [19] 76.9% | residual activity [20] 100% | residual activity [21] 100% | residual activity [22] 88% | residual activity [23] 100% | residual activity [24] 99.4% | residual activity [25] 100% | residual activity [26] 52.3% | residual activity [27] 100% | residual activity [28] 67.7% | residual activity [29] 100% | residual activity [31] 100% | residual activity [32] 100% | inhibition [33] 3.06% | residual activity [34] 100% | residual activity [35] 100% | residual activity [36] 93.1% | residual activity [37] 100% | residual activity [38] 100% | inhibition [39] 5.53% | residual activity [40] 100% | residual activity [41] 78.8% | residual activity [42] 95.9% | residual activity [43] 94% | residual activity [44] 100% | residual activity [45] 83.7%
